The text below walks through data of US4943573A, “Imidazo[4,5-b]quinolinyloxyalkanoic acid amides with enhanced water solubility” (Bristol-Myers Squibb Company, priority 1989, dated 1990).

Series [1] has as its system Biolaser-induced thrombosis / platelet aggregation in rabbit ear. Briefly: in vivo inhibition of biolaser-induced platelet aggregation in the rabbit ear (Biolaser Model). The arrangement: species or system rabbit (English, half-lop). As to conditions: for inhibition in vivo at 0.1 mg/kg: Oryctolagus cuniculus, Platelet, po, 0.1 mg/kg orally, 2 hours. The procedure: Transparent ear chambers were chronically implanted in adult, English, half-lop rabbits. The animals were conditioned to lie quietly in a supine position. Localized microvascular injury was induced by focusing a single pulse ruby laser beam through a microscope into the lumen of a vessel […] in diameter. This evoked the formation of a small thrombus consisting of platelets accumulated around a core of one or two damaged red cells. Thrombi areas were determined using computerized planimetry. The mean thrombus area (μM^2) obtained for 10 trials in each rabbit served as the control value. Subsequently, the test compound was administered orally and 2 hours later a second series of laser-induced thrombi trials were performed. Drug activity was evaluated by comparing pre-and post-dose mean thrombus areas. Activity determined at other time points beyond 2 hours establish duration of action.

A further series deals with ferrets. Briefly: in vivo inotropic activity in anesthetized ferrets (hemodynamic parameters and right ventricular contractile force). As to conditions: for change in vivo at 3 mg/kg: Mustela putorius, intraduodenal, 1 h, 3 mg/kg intraduodenally, monitored 60 minutes. The arrangement: species or system ferret. Here is the method: This test is […] out in ferrets as follows. Fasted anesthetized ferrets are instrumented to study hemodynamic parameters as well as right ventricular contractile force (RVCF) using a Walton-Brodie open strain gauge arch. Drugs are administered intraduodenally as solutions in DMSO (1 mL or less) and effects on myocardial contractile force and other parameters are monitored for 60 minutes after dosing. Changes in contractile force in response to drug treatment are expressed in terms of percent change from predose control.

Series [2] addresses T1, cyclic AMP phosphodiesterase (PDE) enzyme obtained from human platelets (Homo sapiens, UniProt Q14432).
T1 construct: phosphodiesterase (PDE) enzyme obtained from human platelets; from tissue; host or cells: human platelets
Briefly: inhibition of cyclic AMP phosphodiesterase. The conditions noted are these: human platelet PDE. It counts as biochemical. The procedure:
This assay is carried out essentially as described by Thompson, et al., Methods in Enzymology, 38, […] (1974). Briefly, tritium labeled cyclic adenosine monophosphate (cAMP) is incubated with a phosphodiesterase (PDE) enzyme obtained from human platelets which converts a portion of the cAMP to 5'AMP in culture tubes. This reaction is terminated by submerging the tubes in a boiling water bath after which they are placed on ice and an aliquot of snake venom is added to each tube. This, during a second incubation, converts the 5'AMP to adenosine. Ion exchange resin is added to bind the remaining cyclic AMP. The tubes are centrifuged to sediment the resin and a portion of the clear supernatent (which contains radioactive adenosine) is counted in a liquid scintillation counter. The cAMP phosphodiesterase inhibition activity of a test agent is determined by pre-incubating the PDE enzyme preparation with the test agent. Dose response values are obtained and activity of the test agent reported as the molar (M) concentration of the test agent inhibition 50% of the PDE activity (IC50 s).

A further series in a line: solubility. It counts as physicochemical.
The subject of series [3] is ADP-induced platelet aggregation. Briefly: in vitro inhibition of ADP-induced platelet aggregation (aggregometer method of Born, platelet rich plasma). It counts as cell-based. The conditions noted are these: human platelet rich plasma; ADP 2.5 mcg/ml; as the dihydrochloride salt; read-out: EC50 versus ADP (inhibition of ADP-induced platelet aggregation). The procedure:
The aggregometer method of Born^1, as modified by Mustard, et al.^2 was used to assess the in vitro activity of the various compounds as to inhibition of adenosine diphosphate (ADP) and collagen-induced platelet aggregation. Platelet rich plasma (PRP) was separated by centrifugation from citrated (3.8 percent) human blood. ADP in final concentration of 2.5 mcg/ml or 0.05 ml of a collagen suspension prepared according to the method described by Evans, et al.^3 was used to induce aggregation. The various Evans, et al. compounds tested were dissolved in dimethylsulfoxide (DMSO) so that 5 mcl added to the platelet rich plasma would yield the desired test concentration. Vehicle control trials were done and compared with aggregation induced in platelet rich plasma containing various concentrations of the test compounds. Dose response curves were thus obtained and Effective Concentration (EC50) values calculated.

The mark [4] stands for this setting: change from predose control, read-out: Ferret, Maximum % Change, VCF (ventricular contractile force).
Where [5] appears, read: read-out: Ferret, Maximum % Change, HR (heart rate).
[6] abbreviates: read-out: Ferret, Maximum % Change, MAP (mean arterial blood pressure).
Setting [7] is: Table I, read-out: cAMP PDE IC50 (m).

Where two headings read alike, the source gives them in different places. Where only a bound is given, the exact number is not on record here.

T1 sequence (Q14432 whole entry): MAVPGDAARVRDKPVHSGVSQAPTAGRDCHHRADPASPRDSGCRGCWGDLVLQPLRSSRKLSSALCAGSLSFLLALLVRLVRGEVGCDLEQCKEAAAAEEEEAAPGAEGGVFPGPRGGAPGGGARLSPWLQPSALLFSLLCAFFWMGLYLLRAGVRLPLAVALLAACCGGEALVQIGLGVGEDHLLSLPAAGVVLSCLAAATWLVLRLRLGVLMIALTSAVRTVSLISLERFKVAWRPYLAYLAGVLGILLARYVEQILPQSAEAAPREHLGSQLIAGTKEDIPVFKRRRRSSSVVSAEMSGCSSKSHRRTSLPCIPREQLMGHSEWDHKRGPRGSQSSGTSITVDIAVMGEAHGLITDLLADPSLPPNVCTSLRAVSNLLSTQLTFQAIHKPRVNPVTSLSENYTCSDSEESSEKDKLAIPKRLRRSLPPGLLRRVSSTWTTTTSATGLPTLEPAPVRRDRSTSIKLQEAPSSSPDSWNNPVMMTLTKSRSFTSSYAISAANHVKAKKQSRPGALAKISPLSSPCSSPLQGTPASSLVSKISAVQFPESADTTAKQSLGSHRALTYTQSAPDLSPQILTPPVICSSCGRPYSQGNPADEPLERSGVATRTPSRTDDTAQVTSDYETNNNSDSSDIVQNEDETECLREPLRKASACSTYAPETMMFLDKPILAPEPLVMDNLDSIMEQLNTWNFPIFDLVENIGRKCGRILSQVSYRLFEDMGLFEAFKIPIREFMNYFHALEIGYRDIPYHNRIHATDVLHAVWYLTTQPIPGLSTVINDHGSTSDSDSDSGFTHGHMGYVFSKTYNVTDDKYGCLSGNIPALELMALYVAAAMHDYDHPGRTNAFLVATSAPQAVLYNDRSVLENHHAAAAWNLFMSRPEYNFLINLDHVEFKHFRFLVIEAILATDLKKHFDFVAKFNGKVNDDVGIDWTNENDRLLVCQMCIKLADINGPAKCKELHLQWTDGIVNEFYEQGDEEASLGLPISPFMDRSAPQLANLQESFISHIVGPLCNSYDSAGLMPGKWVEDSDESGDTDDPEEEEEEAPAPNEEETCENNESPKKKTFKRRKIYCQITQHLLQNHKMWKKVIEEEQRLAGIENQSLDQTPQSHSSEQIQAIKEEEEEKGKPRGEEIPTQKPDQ

In the case of `O=C(CCCOc1ccc2nc3[nH]c(=O)[nH]c3cc2c1)N1CCN(c2ccccn2)CC1` [Example 19], the inhibition in vivo at 0.1 mg/kg in series [1] (rabbit) turned out to be 47%. In addition, the change in vivo at 3 mg/kg with ferrets (setting [4]) was -8%; with ferrets (setting [5]), 12%; with ferrets (setting [6]), -15%. In addition, in series [2] (setting [7]), the concentration for half-maximal inhibition (IC50) came out at 5 nM.
For the compound `O=C(CCCOc1ccc2nc3[nH]c(=O)[nH]c3cc2c1)N1CCN(c2ccccc2)CC1` [1-[4-[(2,3-dihydro-2-oxo-1H-imidazo[4,5-b]-quinolin-7-yl)oxy]-1-oxobutyl]-4-phenylpiperazine, reference compound], the “activity in Biolaser Model relative to Table I compounds” value in series [1] (0.3 mg/kg body weight, compared with Table I compounds) is on record as “markedly less active than Table I compounds”. Moreover, the “inhibition in Biolaser Model” value in series [1] (0.3 mg/kg body weight, rabbit) was 22%. For the same compound, the solubility in the series “solubility” (2.0n hcl, read-out: solubility in 2.0N HCl) is less than 10 µg/mL; in “solubility” (water, read-out: solubility in water), less than 10 µg/mL.
In turn, `O=C(CCCOc1ccc2nc3[nH]c(=O)[nH]c3cc2c1)N1CCN(Cc2ccccc2)CC1` [Example 11] returned an inhibition in vivo at 0.1 mg/kg in series [1] (rabbit) of 50%. Moreover, the values for the change in vivo at 3 mg/kg in the series with ferrets (setting [4]), in the series with ferrets (setting [5]) and with ferrets (setting [6]) were 28%, 31% and -42%, respectively. The IC50 in series [2] (setting [7]) came to 0.7 nM.
Taken in the same sequence, the figures for `O=C(CCCOc1ccc2nc3[nH]c(=O)[nH]c3cc2c1)N1CCN(Cc2cccc(C(F)(F)F)c2)CC1` [Example 14, 1-[4-(2,3-Dihydro-2-oxo-1H-imidazo[4,5-b]quinolin-7-(yloxy)-1-oxobutyl]-4-[[3-trifluormethyl)phenyl-]methyl]piperazine] were 49%, 3%, 12%, -16% and 9 nM.
Taken in the same sequence, the figures for `O=C(CCCOc1ccc2nc3[nH]c(=O)[nH]c3cc2c1)N1CCN(C2CCCCCC2)CC1` [Example 25, 1-Cycloheptanyl-4-[4-(2,3-dihydro-2-oxo-1H-imidazo[4,5-b]quinolin-7-yloxy)-1-oxobutyl]piperazine] were 49%, 26%, 17%, -12% and 0.9 nM.
For `COc1ccc(CN2CCN(C(=O)CCCOc3ccc4nc5[nH]c(=O)[nH]c5cc4c3)CC2)cc1` [Example 15], in that order: 48%, 24%, 17%, -23% and 3 nM.
With `O=C(CCCOc1ccc2nc3[nH]c(=O)[nH]c3cc2c1)N1CCN(CC2CCCCC2)CC1` [Example 22, 1-(Cyclohexylmethyl)-4-[4-(2,3-dihydro-2-oxo-1H-imidazo[4,5-b]quinolin-7-yloxy)-1-oxybutyl]piperazine], the inhibition in vivo at 0.1 mg/kg in series [1] (rabbit) was determined as 59%. Besides, in series [3], the concentration for a half-maximal effect (EC50) stood at 910 nM. For the same compound, the change in vivo at 3 mg/kg is 27% in the series with ferrets (setting [4]), 29% in the series with ferrets (setting [5]) and -15% in the series on ferrets (setting [6]). For the same compound, the half-inhibitory concentration (IC50) in series [2] (read-out: IC50, cAMP phosphodiesterase inhibition) stood at 0.4 nM.
As for `O=C(CCCOc1ccc2nc3[nH]c(=O)[nH]c3cc2c1)N1CCN(Cc2cccs2)CC1` [Example 16, 1-[4-(2,3-Dihydro-2-oxo-1H-imidazo[4,5-b]quinolin-7-yloxy)-1-oxobutyl]-4-(2-thienylmethyl)piperazine], in series [1] (rabbit), the inhibition in vivo at 0.1 mg/kg was 49%. For the same compound, the change in vivo at 3 mg/kg with ferrets (setting [4]) was 30%; in the series on ferrets (setting [5]) it was 16%; in the series with ferrets (setting [6]), -27%. For the same compound, the 50% inhibitory concentration (IC50) in series [2] (setting [7]) worked out at 0.7 nM.
For `O=C(CCCOc1ccc2nc3[nH]c(=O)[nH]c3cc2c1)N1CCN(Cc2ccc(F)cc2)CC1` [Example 13], in that order: 46%, 32%, 21%, -11% and 2 nM.
On to `Cc1[nH]c(=O)c(C#N)cc1-c1ccncc1` [milrinone, reference compound], for which the “increase in RVCF (right ventricular contractile force)” value in the series with ferrets (3 mg/kg, ferret) is recorded as 52%.

Usually inhibition in vivo stands for how much of the control response was suppressed. Lower therefore signals little suppression. The IC50 is the concentration needed to halve the response being measured. As a reminder, the solubility is the dissolved amount per volume that the medium holds. Broadly, the EC50 is the concentration needed to bring the measured effect to its halfway point.
